Measured values: patent US20130315965A1, “HARMINE DERIVATIVES FOR PROMOTING BONE GROWTH” (OssiFi, Inc., priority 2012, published 2013)

How the values were obtained:
Sclerostin = molecular target: T1, Sclerostin (Homo sapiens, UniProt Q9BQB4); test: luciferase Wnt pathway activity assay (inhibition of sclerostin by restoration of Wnt signaling); type: cell-based; conditions: for identified as promoting bone growth (Wnt signaling / inhibition of sclerostin): human cells, luciferase Wnt pathway activity; for concentration at which compound inhibits sclerostin and restores normal Wnt activity (RLU): human embryonic cells, luciferase RLU, p<0.05
T1 construct: host or cells: human cells (reporter cells)
T1 sequence (Q9BQB4 24-213): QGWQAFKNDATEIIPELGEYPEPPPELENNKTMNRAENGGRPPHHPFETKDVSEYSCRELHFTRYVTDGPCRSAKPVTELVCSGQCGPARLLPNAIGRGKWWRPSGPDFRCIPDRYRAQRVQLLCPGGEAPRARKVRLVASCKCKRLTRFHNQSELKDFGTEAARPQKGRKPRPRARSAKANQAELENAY
Procedure: (§1) The Y axis represents Relative Light Units (RLU) which represents Wnt pathway signaling. Addition of Wnt (W) activates the Wnt pathway, while addition of Sclerostin (S) inhibits the Wnt pathway. Addition of Compound 1 inhibits sclerostin and restores normal Wnt activity at 3 μM. Asterisks represent statistically significant p<0.05.
as §1, with “2” for “1”, “10” for “3”
Briefly, human cells are treated with a predetermined dose of a candidate compound for a complete dosing schedule. Control vehicle treated cells are treated with a control solution, preferably a non-irritating buffer solution or other carrier. Once the dosing schedule has been completed, both test and control assays are examined for luciferase Wnt pathway activity to determine the quantity of Wnt signaling and thus inhibition of sclerostin.
Bars marked with a double asterisk indicate a significant difference as compared to S, but not as compared to W. Concentrations are indicated along the X axis in micromolar values.
Concentrations are indicated along the X axis in micromolar values.

osteocalcin (OCN) = test: Bone formation assay: osteocalcin (OCN) ELISA in cells treated with sclerostin and compound; type: cell-based, human
From the text: Bone formation can be assayed in vitro or in vivo using a serum marker for bone formation, osteocalcin (OCN). OCN is commercially available, e.g., from Biomedical Technologies, Inc. (Stoughton, Mass.). In one exemplary assay, using the manufacturer's protocol for the mouse osteocalcin EIA kit (described at http://www.btiinc.com/page/cata2/html#mouse_osteocalcin) bone formation in cells such as MC3T3 osteoblast cells can be assayed by measuring the concentration of OCN. An ELISA assay followed by spectrophotometer optical density (OD) readings to measure the concentration of OCN is used to detect the level of OCN secreted from cells, e.g., cells treated with a vehicle control, a sclerostin control, or with a combination of sclerostin and a compound as described herein. In some embodiments, the cells are treated with increasing doses of the control or compound.
Compound 2 was added in increasing amounts (0.13 μM-100 μM) with sclerostin at 1/8 volume.

| identified as promoting bone growth (Wnt signaling / inhibition of sclerostin) (Sclerostin) | concentration at which compound inhibits sclerostin and restores normal Wnt activity (RLU) (Sclerostin) | Compound | effect on OCN induction blocked by sclerostin (osteocalcin (OCN); 0.13 μM-100 μM compound with sclerostin at 1/8 volume) | stimulation of bone formation marker OCN versus vehicle-treated cells with No Sclerostin (NS) (osteocalcin (OCN); 20 μM compound with Sclerostin at 1/8 volume) |
| --- | --- | --- | --- | --- |
| identified as promoting bone growth | 3 µM | Cc1nc(O)cc2c1[nH]c1ccccc12 [Compound 1, 3-hydroxy-1-methyl-9H-pyrido[3,4-b]indole] | – | – |
| identified as promoting bone growth | 10 µM | COc1ccc(-c2nccc3c2[nH]c2ccccc23)cc1 [Compound 2, 1-(4-methoxyphenyl)-9H-pyrido[3,4-b]indole] | restoration of OCN activity that was blocked by sclerostin | stimulation of OCN well over that of the vehicle-treated cells |
